What is called IC50 is the midpoint of a concentration-inhibition curve.

The assay is described as follows: Antagonist activity at CCR2 in human peripheral blood mononuclear cells assessed as reduction in MCP1-induced chemotaxis measured after 30 mins by calcein-AM dye based fluorescence assay.

SMILES strings stand for the structures.

Consider `CN[C@@H]1CC[C@H](N2CC[C@H](Nc3ncnc4ccc(C(F)(F)F)cc34)C2=O)[C@H](NC(C)=O)C1`, for which the IC50 is 1.7 nM.

Values taken from BindingDB's records for doi:10.1021/acsmedchemlett.1c00082 (Bristol Myers Squibb, 2021).
